± gives the expanded uncertainty stated by the source.
Legend:
[1] = refractive index (Na D-line) (dimensionless); conditions: 101.33 kPa, Liquid, Standard Abbe refractometry
[2] = for surface tension liquid-gas: Capillary rise; for viscosity / mass density: Liquid; for viscosity: Falling or rolling sphere viscometry; for mass density: Vibrating tube method
[3] = refractive index (Na D-line) (dimensionless); xn = mol fraction of the nth substance listed; conditions: Liquid, Standard Abbe refractometry
[4] = xn = mol fraction of the nth substance listed; conditions: for surface tension liquid-gas: Capillary rise; for viscosity / mass density: Liquid; for viscosity: Falling or rolling sphere viscometry; for mass density: Vibrating tube method

| Compound | refractive index ([1]; 293.15 K) | refractive index ([1]; 303.15 K) | refractive index ([1]; 313.15 K) | refractive index ([1]; 323.15 K) | surface tension liquid-gas ([2]; 293.15 K) | viscosity ([2]; 293.15 K, 100.8 kPa) | mass density ([2]; 293.15 K, 100.8 kPa) | surface tension liquid-gas ([2]; 303.15 K) | viscosity ([2]; 303.15 K, 100.8 kPa) | mass density ([2]; 303.15 K, 100.8 kPa) | surface tension liquid-gas ([2]; 313.15 K) | viscosity ([2]; 313.15 K, 100.8 kPa) | mass density ([2]; 313.15 K, 100.8 kPa) | surface tension liquid-gas ([2]; 323.15 K) | viscosity ([2]; 323.15 K, 100.8 kPa) | mass density ([2]; 323.15 K, 100.8 kPa) | refractive index ([3]; 293.15 K, 100.8 kPa, x1 = 1) | refractive index ([3]; 303.15 K, 100.8 kPa, x1 = 1) | refractive index ([3]; 313.15 K, 100.8 kPa, x1 = 1) | refractive index ([3]; 323.15 K, 100.8 kPa, x1 = 1) | other results |
| --- | --- | --- | --- | --- | --- | --- | --- | --- | --- | --- | --- | --- | --- | --- | --- | --- | --- | --- | --- | --- | --- |
| CCO [ethanol] | 1.36137 ± 0.001 | 1.35712 ± 0.001 | 1.35292 ± 0.001 | 1.34873 ± 0.001 | 22.3 ± 0.4 mN/m | 1.183 ± 0.018 mPa·s | 789.1 ± 0.19 kg/m3 | 21.4 ± 0.4 mN/m | 0.98 ± 0.018 mPa·s | 780.76 ± 0.2 kg/m3 | 20.6 ± 0.4 mN/m | 0.822 ± 0.017 mPa·s | 771.99 ± 0.2 kg/m3 | 19.4 ± 0.4 mN/m | 0.698 ± 0.017 mPa·s | 763.03 ± 0.2 kg/m3 | – | – | – | – | – |
| CCO [ethanol] + CC(=O)OCc1ccccc1 | – | – | – | – | – | – | – | – | – | – | – | – | – | – | – | – | 1.36137 ± 0.001 | 1.35712 ± 0.001 | 1.35292 ± 0.001 | 1.34873 ± 0.001 | surface tension liquid-gas ([4]; 293.15 K, x1 = 1): 22.3 ± 0.4 mN/m; viscosity ([4]; 293.15 K, 100.8 kPa, x1 = 1): 1.183 ± 0.018 mPa·s; mass density ([4]; 293.15 K, 100.8 kPa, x1 = 1): 789.1 ± 0.19 kg/m3; surface tension liquid-gas ([4]; 303.15 K, x1 = 1): 21.4 ± 0.4 mN/m; viscosity ([4]; 303.15 K, 100.8 kPa, x1 = 1): 0.98 ± 0.018 mPa·s; mass density ([4]; 303.15 K, 100.8 kPa, x1 = 1): 780.76 ± 0.2 kg/m3; surface tension liquid-gas ([4]; 313.15 K, x1 = 1): 20.6 ± 0.4 mN/m; viscosity ([4]; 313.15 K, 100.8 kPa, x1 = 1): 0.822 ± 0.017 mPa·s; mass density ([4]; 313.15 K, 100.8 kPa, x1 = 1): 771.99 ± 0.2 kg/m3; surface tension liquid-gas ([4]; 323.15 K, x1 = 1): 19.4 ± 0.4 mN/m; viscosity ([4]; 323.15 K, 100.8 kPa, x1 = 1): 0.698 ± 0.017 mPa·s; mass density ([4]; 323.15 K, 100.8 kPa, x1 = 1): 763.03 ± 0.2 kg/m3 |
| CC(=O)OCc1ccccc1 [benzyl ethanoate] | 1.50245 ± 0.0011 | 1.49776 ± 0.0011 | 1.49309 ± 0.0011 | 1.48834 ± 0.0011 | 37.3 ± 0.5 mN/m | 2.324 ± 0.026 mPa·s | 1055.81 ± 0.3 kg/m3 | 35.6 ± 0.4 mN/m | 1.836 ± 0.023 mPa·s | 1046.74 ± 0.29 kg/m3 | 34.3 ± 0.4 mN/m | 1.474 ± 0.021 mPa·s | 1037.42 ± 0.29 kg/m3 | 33.2 ± 0.4 mN/m | 1.256 ± 0.02 mPa·s | 1027.51 ± 0.28 kg/m3 | – | – | – | – | viscosity ([2]; 293.15 K, 101 kPa): 2.324 ± 0.026 mPa·s; mass density ([2]; 293.15 K, 101 kPa): 1055.81 ± 0.3 kg/m3; viscosity ([2]; 303.15 K, 101 kPa): 1.836 ± 0.023 mPa·s; mass density ([2]; 303.15 K, 101 kPa): 1046.74 ± 0.29 kg/m3; viscosity ([2]; 313.15 K, 101 kPa): 1.474 ± 0.021 mPa·s; mass density ([2]; 313.15 K, 101 kPa): 1037.42 ± 0.29 kg/m3; viscosity ([2]; 323.15 K, 101 kPa): 1.256 ± 0.02 mPa·s; mass density ([2]; 323.15 K, 101 kPa): 1027.51 ± 0.28 kg/m3 |
| CCO [ethanol] + OCc1ccccc1 | – | – | – | – | – | – | – | – | – | – | – | – | – | – | – | – | 1.36137 ± 0.001 | 1.35712 ± 0.001 | 1.35292 ± 0.001 | 1.34873 ± 0.001 | surface tension liquid-gas ([4]; 293.15 K, x1 = 1): 22.3 ± 0.4 mN/m; viscosity ([4]; 293.15 K, 100.8 kPa, x1 = 1): 1.183 ± 0.018 mPa·s; mass density ([4]; 293.15 K, 100.8 kPa, x1 = 1): 789.1 ± 0.2 kg/m3; surface tension liquid-gas ([4]; 303.15 K, x1 = 1): 21.4 ± 0.4 mN/m; viscosity ([4]; 303.15 K, 100.8 kPa, x1 = 1): 0.98 ± 0.018 mPa·s; mass density ([4]; 303.15 K, 100.8 kPa, x1 = 1): 780.76 ± 0.2 kg/m3; surface tension liquid-gas ([4]; 313.15 K, x1 = 1): 20.6 ± 0.4 mN/m; viscosity ([4]; 313.15 K, 100.8 kPa, x1 = 1): 0.822 ± 0.017 mPa·s; mass density ([4]; 313.15 K, 100.8 kPa, x1 = 1): 771.99 ± 0.2 kg/m3; surface tension liquid-gas ([4]; 323.15 K, x1 = 1): 19.4 ± 0.4 mN/m; viscosity ([4]; 323.15 K, 100.8 kPa, x1 = 1): 0.698 ± 0.017 mPa·s; mass density ([4]; 323.15 K, 100.8 kPa, x1 = 1): 763.03 ± 0.2 kg/m3 |
| OCc1ccccc1 [benzenemethanol] + CC(=O)OCc1ccccc1 | – | – | – | – | – | – | – | – | – | – | – | – | – | – | – | – | – | – | – | – | refractive index ([3]; 293.15 K, 101 kPa, x2 = 0): 1.54049 ± 0.00033; refractive index ([3]; 303.15 K, 101 kPa, x2 = 0): 1.53635 ± 0.00033; refractive index ([3]; 313.15 K, 101 kPa, x2 = 0): 1.53215 ± 0.00033; refractive index ([3]; 323.15 K, 101 kPa, x2 = 0): 1.52796 ± 0.00033; surface tension liquid-gas ([4]; 293.15 K, x2 = 0): 39.2 ± 0.4 mN/m; viscosity ([4]; 293.15 K, 101 kPa, x2 = 0): 6.287 ± 0.054 mPa·s; mass density ([4]; 293.15 K, 101 kPa, x2 = 0): 1045.44 ± 0.19 kg/m3; surface tension liquid-gas ([4]; 303.15 K, x2 = 0): 38.1 ± 0.4 mN/m; viscosity ([4]; 303.15 K, 101 kPa, x2 = 0): 4.579 ± 0.041 mPa·s; mass density ([4]; 303.15 K, 101 kPa, x2 = 0): 1037.45 ± 0.18 kg/m3; surface tension liquid-gas ([4]; 313.15 K, x2 = 0): 37.2 ± 0.4 mN/m; viscosity ([4]; 313.15 K, 101 kPa, x2 = 0): 3.335 ± 0.031 mPa·s; mass density ([4]; 313.15 K, 101 kPa, x2 = 0): 1029.61 ± 0.18 kg/m3; surface tension liquid-gas ([4]; 323.15 K, x2 = 0): 36.3 ± 0.4 mN/m; viscosity ([4]; 323.15 K, 101 kPa, x2 = 0): 2.545 ± 0.026 mPa·s; mass density ([4]; 323.15 K, 101 kPa, x2 = 0): 1021.5 ± 0.18 kg/m3 |
| OCc1ccccc1 [benzenemethanol] | 1.54049 ± 0.001 | 1.53635 ± 0.001 | 1.53215 ± 0.001 | 1.52796 ± 0.001 | 39.2 ± 0.4 mN/m | 6.287 ± 0.054 mPa·s | 1045.44 ± 0.19 kg/m3 | 38.1 ± 0.4 mN/m | 4.579 ± 0.041 mPa·s | 1037.45 ± 0.18 kg/m3 | 37.2 ± 0.4 mN/m | 3.335 ± 0.031 mPa·s | 1029.61 ± 0.18 kg/m3 | 36.3 ± 0.4 mN/m | 2.545 ± 0.026 mPa·s | 1021.5 ± 0.18 kg/m3 | – | – | – | – | viscosity ([2]; 293.15 K, 101 kPa): 6.287 ± 0.054 mPa·s; mass density ([2]; 293.15 K, 101 kPa): 1045.44 ± 0.19 kg/m3; viscosity ([2]; 303.15 K, 101 kPa): 4.579 ± 0.041 mPa·s; mass density ([2]; 303.15 K, 101 kPa): 1037.45 ± 0.18 kg/m3; viscosity ([2]; 313.15 K, 101 kPa): 3.335 ± 0.031 mPa·s; mass density ([2]; 313.15 K, 101 kPa): 1029.61 ± 0.18 kg/m3; viscosity ([2]; 323.15 K, 101 kPa): 2.545 ± 0.026 mPa·s; mass density ([2]; 323.15 K, 101 kPa): 1021.5 ± 0.18 kg/m3 |
